In ChEMBL document CHEMBL4665811, “Sila-Ibuprofen” (J Med Chem, 2020):
In brackets after ≈: the same amount, converted by molar mass.

What was measured:
[1] = Solubility in water by HPLC/UV analysis; type: physicochemical
C6 [2] = assay: Toxicity in rat C6 cells assessed as effect on cellular viability at 1000 uM incubated up to 3 days by WST1 assay; type: cell-based; conditions: c6, 72 h, time <=3 day
C6 [3] = assay: Toxicity in rat C6 cells assessed as effect on cell proliferation at 300 uM incubated up to 3 days by LDH release assay; type: cell-based; conditions: c6, 72 h, time <=3 day
C6 [4] = assay: Toxicity in rat C6 cells assessed as reduction in protein content at 1000 uM incubated up to 3 days; type: cell-based; conditions: c6, 72 h, time <= day
[5] = target: T1, Prostaglandin G/H synthase 2 (Homo sapiens, UniProt P35354); assay: Inhibition of human recombinant COX2 expressed in Sf9 cells using arachidonic acid and ADHP incubated for 5 mins by fluorimetry
T1 sequence (P35354 whole entry): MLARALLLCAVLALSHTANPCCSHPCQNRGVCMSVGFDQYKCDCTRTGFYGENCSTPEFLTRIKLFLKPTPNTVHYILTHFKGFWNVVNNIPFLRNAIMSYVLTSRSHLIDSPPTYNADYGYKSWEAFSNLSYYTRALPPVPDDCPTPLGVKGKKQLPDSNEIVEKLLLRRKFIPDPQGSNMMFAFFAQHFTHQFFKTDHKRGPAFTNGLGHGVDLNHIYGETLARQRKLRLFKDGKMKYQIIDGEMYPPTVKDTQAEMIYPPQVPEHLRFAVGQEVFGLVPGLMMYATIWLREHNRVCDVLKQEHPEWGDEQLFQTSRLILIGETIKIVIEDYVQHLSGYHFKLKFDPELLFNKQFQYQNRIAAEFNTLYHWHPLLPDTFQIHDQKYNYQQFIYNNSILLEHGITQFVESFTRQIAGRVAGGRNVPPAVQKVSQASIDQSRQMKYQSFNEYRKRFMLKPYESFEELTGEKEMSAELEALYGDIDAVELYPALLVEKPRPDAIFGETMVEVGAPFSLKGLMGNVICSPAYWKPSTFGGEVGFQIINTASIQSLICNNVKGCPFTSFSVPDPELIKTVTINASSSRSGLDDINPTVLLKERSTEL

C6 [6] = assay: Toxicity in rat C6 cells assessed as effect on cellular lactate production to 300 uM incubated for 72 hrs; type: cell-based; conditions: c6, 72 h
C6 [7] = assay: Toxicity in rat C6 cells assessed as effect on cellular protein per well up to 300 uM incubated for 72 hrs; type: cell-based; conditions: c6, 72 h
C6 [8] = assay: Toxicity in rat C6 cells assessed as effect on cell viability up to 300 uM incubated for 72 hrs by LDH release assay; type: cell-based; conditions: c6, 72 h
C6 [9] = assay: Toxicity in rat C6 cells assessed as effect on cell morphology at 1000 uM incubated for 3 days; type: cell-based; conditions: c6, 72 h, time 3 day
C6 [10] = assay: Toxicity in rat C6 cells assessed as reduction in cell proliferation at 1000 uM incubated up to 3 days by LDH release assay; type: cell-based; conditions: c6, 72 h, time <=3 day
C6 [11] = assay: Toxicity in rat C6 cells assessed as effect on extracellular lactate dehydrogenase activity at 1000 uM incubated for 3 days by LDH release assay; type: cell-based; conditions: c6, 72 h, time 3 day
[12] = target: Prostaglandin G/H synthase 1 (Homo sapiens, UniProt P23219); assay: Inhibition of human recombinant COX1 expressed in Sf9 cells using arachidonic acid and ADHP incubated for 3 mins by fluorimetry
Prostaglandin G/H synthase 1, sequence (P23219 whole entry): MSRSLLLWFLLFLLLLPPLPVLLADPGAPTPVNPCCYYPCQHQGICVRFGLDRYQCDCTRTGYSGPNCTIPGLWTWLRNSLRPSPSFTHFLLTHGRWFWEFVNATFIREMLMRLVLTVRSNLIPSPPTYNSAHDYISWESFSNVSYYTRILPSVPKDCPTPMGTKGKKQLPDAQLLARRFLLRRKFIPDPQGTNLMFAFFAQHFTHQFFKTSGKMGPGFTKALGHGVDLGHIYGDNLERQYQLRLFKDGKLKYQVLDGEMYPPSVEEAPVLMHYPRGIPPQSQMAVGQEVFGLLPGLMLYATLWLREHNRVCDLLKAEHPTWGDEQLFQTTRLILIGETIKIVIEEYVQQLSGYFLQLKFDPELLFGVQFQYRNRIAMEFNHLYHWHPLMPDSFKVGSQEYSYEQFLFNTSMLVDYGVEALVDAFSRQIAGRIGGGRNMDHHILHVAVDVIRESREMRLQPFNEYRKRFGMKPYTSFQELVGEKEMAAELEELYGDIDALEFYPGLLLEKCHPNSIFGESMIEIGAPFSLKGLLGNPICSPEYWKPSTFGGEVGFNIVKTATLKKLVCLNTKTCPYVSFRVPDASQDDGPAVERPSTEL

C6 [13] = assay: Toxicity in rat C6 cells assessed as effect on cellular viability up to 300 uM incubated for 72 hrs by WST1 assay; type: cell-based; conditions: c6, 72 h

SMILES | solubility [1] [µg/mL] | Activity (C6 [2]) | Activity (C6 [3]) | Activity (C6 [4]) | IC50 [5] [µM] | Activity (C6 [6]) | Activity (C6 [7]) | Activity (C6 [8]) | Activity (C6 [9]) | Activity (C6 [10]) | Activity (C6 [11]) | IC50 [12] [µM] | Activity (C6 [13])
CC(C(=O)O)c1ccc(C[SiH](C)C)cc1 (stereo unspecified) | 83 (≈ 373 µM) | Toxic | Non-Toxic | Toxic | 8.3 | Non-Toxic | Non-Toxic | Non-Toxic | Non-Toxic | Toxic | Non-Toxic | 26 | Non-Toxic
CC(C)Cc1ccc(C(C)C(=O)O)cc1 (stereo unspecified) [IBUPROFEN] |  |  | Non-Toxic |  |  | Non-Toxic | Non-Toxic | Non-Toxic | Non-Toxic | Toxic | Non-Toxic |  | Non-Toxic
